Assay: xn = mol fraction of the nth substance listed
Details: 101 kPa, Liquid; for speed of sound: Frequency=2 MHz, Sing-around technique in a fixed-path interferometer; for viscosity: Oscillating disk viscometry; for mass density: Vibrating tube method

OC1CCCCC1 [cyclohexanol] + CN1CCCC1=O
Details | mass density [kg/m3] | speed of sound [m/s] | viscosity [mPa·s]
303.15 K, x2 = 0 | 941.32 | 1443.2 | 41.07
303.15 K, x2 = 0.1088 | 952.25 | 1462.3 | 36.8
303.15 K, x2 = 0.2155 | 962.68 | 1480.5 | 32.6
303.15 K, x2 = 0.3201 | 973.14 | 1495.7 | 28.48
303.15 K, x2 = 0.4228 | 983.38 | 1508.8 | 24.44
303.15 K, x2 = 0.5235 | 992.24 | 1520.5 | 20.47
303.15 K, x2 = 0.6223 | 999.61 | 1530.5 | 16.55
303.15 K, x2 = 0.7194 | 1005.72 | 1538.4 | 12.7
303.15 K, x2 = 0.8146 | 1011.65 | 1544.3 | 8.912
303.15 K, x2 = 0.9081 | 1017.47 | 1549.2 | 5.186
308.15 K, x2 = 0 | 937.23 | 1419.6 | 27.95
308.15 K, x2 = 0.1088 | 948.65 | 1440.8 | 25.09
308.15 K, x2 = 0.2155 | 959.48 | 1458.7 | 22.27
308.15 K, x2 = 0.3201 | 970.04 | 1473.4 | 19.52
308.15 K, x2 = 0.4228 | 979.96 | 1486.2 | 16.81
308.15 K, x2 = 0.5235 | 988.83 | 1497.5 | 14.15
308.15 K, x2 = 0.6223 | 996.39 | 1506.9 | 11.52
308.15 K, x2 = 0.7194 | 1002.69 | 1515.1 | 8.928
308.15 K, x2 = 0.8146 | 1008.39 | 1521.2 | 6.381
308.15 K, x2 = 0.9081 | 1014.23 | 1525.2 | 3.878
313.15 K, x2 = 0 | 933.48 | 1395.2 | 16.66
313.15 K, x2 = 0.1088 | 945.29 | 1418.3 | 15.01
313.15 K, x2 = 0.2155 | 956.55 | 1436.2 | 13.39
313.15 K, x2 = 0.3201 | 967.18 | 1450.8 | 11.81
313.15 K, x2 = 0.4228 | 976.72 | 1463.7 | 10.25
313.15 K, x2 = 0.5235 | 985.29 | 1475.1 | 8.714
313.15 K, x2 = 0.6223 | 992.87 | 1484.6 | 7.194
313.15 K, x2 = 0.7194 | 999.41 | 1492.4 | 5.69
313.15 K, x2 = 0.8146 | 1005.24 | 1498.2 | 4.211
313.15 K, x2 = 0.9081 | 1010.33 | 1500.6 | 2.76
318.15 K, x2 = 0 | 928.11 | 1370.8 | 8.888
318.15 K, x2 = 0.1088 | 940.43 | 1395.7 | 8.064
318.15 K, x2 = 0.2155 | 952.24 | 1413.7 | 7.26
318.15 K, x2 = 0.3201 | 963.21 | 1428.6 | 6.472
318.15 K, x2 = 0.4228 | 972.85 | 1441.9 | 5.694
318.15 K, x2 = 0.5235 | 981.32 | 1453.3 | 4.926
318.15 K, x2 = 0.6223 | 988.87 | 1462.8 | 4.163
318.15 K, x2 = 0.7194 | 995.46 | 1471.1 | 3.406
318.15 K, x2 = 0.8146 | 1001.47 | 1476.7 | 2.658
318.15 K, x2 = 0.9081 | 1006.79 | 1477.6 | 1.924

NC1CCCCC1 [cyclohexylamine] + CN1CCCC1=O
Details | mass density [kg/m3] | speed of sound [m/s] | viscosity [mPa·s]
303.15 K, x2 = 0 | 857.71 | 1397.8 | 1.797
303.15 K, x2 = 0.1171 | 877.49 | 1424.2 | 1.791
303.15 K, x2 = 0.2299 | 896.91 | 1448.4 | 1.789
303.15 K, x2 = 0.3385 | 915.83 | 1469.1 | 1.784
303.15 K, x2 = 0.4432 | 933.86 | 1487.8 | 1.773
303.15 K, x2 = 0.5442 | 950.84 | 1504.3 | 1.754
303.15 K, x2 = 0.6417 | 966.69 | 1518.1 | 1.727
303.15 K, x2 = 0.7358 | 981.66 | 1530.2 | 1.693
303.15 K, x2 = 0.8268 | 995.81 | 1540.3 | 1.648
303.15 K, x2 = 0.9149 | 1009.73 | 1548.2 | 1.592
308.15 K, x2 = 0 | 853.14 | 1379.2 | 1.704
308.15 K, x2 = 0.1171 | 873.25 | 1406.8 | 1.69
308.15 K, x2 = 0.2299 | 892.71 | 1429.4 | 1.678
308.15 K, x2 = 0.3385 | 911.69 | 1449.1 | 1.668
308.15 K, x2 = 0.4432 | 929.76 | 1467.1 | 1.655
308.15 K, x2 = 0.5442 | 946.83 | 1483.1 | 1.636
308.15 K, x2 = 0.6417 | 962.86 | 1496.5 | 1.607
308.15 K, x2 = 0.7358 | 977.92 | 1507.7 | 1.569
308.15 K, x2 = 0.8268 | 992.5 | 1517.2 | 1.522
308.15 K, x2 = 0.9149 | 1006.41 | 1524.6 | 1.47
313.15 K, x2 = 0 | 848.61 | 1360.6 | 1.617
313.15 K, x2 = 0.1171 | 869.06 | 1389.2 | 1.6
313.15 K, x2 = 0.2299 | 888.52 | 1411.4 | 1.588
313.15 K, x2 = 0.3385 | 907.42 | 1430.5 | 1.575
313.15 K, x2 = 0.4432 | 925.48 | 1447.6 | 1.56
313.15 K, x2 = 0.5442 | 942.64 | 1462.5 | 1.541
313.15 K, x2 = 0.6417 | 958.87 | 1475.1 | 1.514
313.15 K, x2 = 0.7358 | 974.13 | 1485.7 | 1.477
313.15 K, x2 = 0.8268 | 988.74 | 1494.6 | 1.432
313.15 K, x2 = 0.9149 | 1002.53 | 1500.8 | 1.38
318.15 K, x2 = 0 | 844.07 | 1342 | 1.506
318.15 K, x2 = 0.1171 | 864.89 | 1371.7 | 1.484
318.15 K, x2 = 0.2299 | 884.43 | 1393.8 | 1.463
318.15 K, x2 = 0.3385 | 903.34 | 1412.2 | 1.442
318.15 K, x2 = 0.4432 | 921.45 | 1428.7 | 1.422
318.15 K, x2 = 0.5442 | 938.47 | 1443.2 | 1.401
318.15 K, x2 = 0.6417 | 954.68 | 1455.4 | 1.375
318.15 K, x2 = 0.7358 | 970.14 | 1465.4 | 1.341
318.15 K, x2 = 0.8268 | 984.78 | 1473.6 | 1.298
318.15 K, x2 = 0.9149 | 998.55 | 1477.8 | 1.251

C1=CCCCC1 [cyclohexene] + CN1CCCC1=O
Details | mass density [kg/m3] | speed of sound [m/s] | viscosity [mPa·s]
303.15 K, x2 = 0 | 801.81 | 1252.1 | 0.581
303.15 K, x2 = 0.1052 | 818.56 | 1267.5 | 0.612
303.15 K, x2 = 0.2091 | 834.84 | 1285.6 | 0.653
303.15 K, x2 = 0.3119 | 851.21 | 1307.1 | 0.698
303.15 K, x2 = 0.4135 | 868.75 | 1330.4 | 0.748
303.15 K, x2 = 0.514 | 889.05 | 1356.2 | 0.812
303.15 K, x2 = 0.6134 | 912.45 | 1384.5 | 0.897
303.15 K, x2 = 0.7116 | 938.12 | 1417.6 | 1.009
303.15 K, x2 = 0.8088 | 964.81 | 1456.8 | 1.148
303.15 K, x2 = 0.9049 | 992.11 | 1502.7 | 1.315
308.15 K, x2 = 0 | 797.25 | 1224.8 | 0.549
308.15 K, x2 = 0.1052 | 811.04 | 1240.5 | 0.579
308.15 K, x2 = 0.2091 | 827.32 | 1258.2 | 0.618
308.15 K, x2 = 0.3119 | 844.1 | 1278.6 | 0.663
308.15 K, x2 = 0.4135 | 862.03 | 1301.5 | 0.715
308.15 K, x2 = 0.514 | 882.54 | 1326.4 | 0.775
308.15 K, x2 = 0.6134 | 906.06 | 1355.1 | 0.853
308.15 K, x2 = 0.7116 | 931.63 | 1388.3 | 0.954
308.15 K, x2 = 0.8088 | 957.89 | 1426.8 | 1.081
308.15 K, x2 = 0.9049 | 985.56 | 1472.5 | 1.235
313.15 K, x2 = 0 | 792.61 | 1196.6 | 0.516
313.15 K, x2 = 0.1052 | 804.12 | 1212.4 | 0.551
313.15 K, x2 = 0.2091 | 819.12 | 1230.5 | 0.587
313.15 K, x2 = 0.3119 | 836.04 | 1250.4 | 0.63
313.15 K, x2 = 0.4135 | 854.81 | 1273.5 | 0.68
313.15 K, x2 = 0.514 | 875.73 | 1298.8 | 0.742
313.15 K, x2 = 0.6134 | 899.06 | 1327.1 | 0.818
313.15 K, x2 = 0.7116 | 924.14 | 1360.3 | 0.914
313.15 K, x2 = 0.8088 | 950.51 | 1398.7 | 1.031
313.15 K, x2 = 0.9049 | 979.38 | 1444.1 | 1.171
318.15 K, x2 = 0 | 788.02 | 1169.6 | 0.488
318.15 K, x2 = 0.1052 | 798.05 | 1185.2 | 0.522
318.15 K, x2 = 0.2091 | 813.05 | 1202.2 | 0.558
318.15 K, x2 = 0.3119 | 829.52 | 1222.2 | 0.597
318.15 K, x2 = 0.4135 | 847.61 | 1245.2 | 0.642
318.15 K, x2 = 0.514 | 868.15 | 1270.4 | 0.698
318.15 K, x2 = 0.6134 | 891.64 | 1298.6 | 0.771
318.15 K, x2 = 0.7116 | 917.16 | 1330.3 | 0.856
318.15 K, x2 = 0.8088 | 943.71 | 1369.2 | 0.956
318.15 K, x2 = 0.9049 | 972.27 | 1416.1 | 1.072
